Paper PMC7156724, “Potent BRD4 inhibitor suppresses cancer cell-macrophage interaction” (Nature Communications, 2020)
“And” between values parts separate entries of the source, which are not always exact repeats. Identical values can stand only once. Like-named read-outs stand apart in the source and are kept apart here.

Key:
CSF1 mRNA [1] = test: RT-qPCR of CSF1 mRNA in human ovarian cancer and melanoma cells; format: cell-based; conditions: 50 nM, 48 h
[2] = In vivo pharmacokinetics study, mouse
Procedure: 4–6 weeks old female BALB/c nude mice were used for most experiments, with the exception of 6–8 weeks old female C57BL/6 mice were used for B16F10 experiments, and 6–8 weeks old male BALB/c nude mice and SD rats were used for pharmacokinetic experiments. All animals were purchased from Shanghai SIPPR-Bk Lab Animal Co., Ltd. All animals were housed under a regimen of 12 h light/12 h dark cycles and specific pathogen-free conditions. 5×10^6 NCI-H526, ES-2, MDA-MB231, A2780, A375, B16F10, and TMD-8 cells (0.1 ml) were injected subcutaneously into female nude mice. The melanoma patient-derived xenograft model was derived from a human melanoma sample (BRAF, NARS and NF1 wild type, and p53 mutant) removed from a patient in Xiangya Hospital. Surgically removed tumor fragments were implanted subcutaneously into female NSG mice. When the tumors grew to ~1000 mm^3, they were harvested and cryopreserved or immediately re-implanted for expansion or experiments. Mouse body weight and tumor sizes were measured every 3 days. Once the tumors grew to 150–200 mm^3, mice were treated with the compounds as described in the Figures. 1 × 10^6 A2780 cells (1 ml) were injected into the abdominal cavity of nude mice. Ascitic volume and tumor weight were measured by an electronic balance. All the procedures were evaluated and approved by the Institutional Animal Care and Use Committee of Central South University and Yale University.
Supplementary Figure 7. Pharmacokinetic profile of NHWD-870 using mouse and rat models.
(a,b) Plasma concentrations of NHWD-870 in healthy (a) mouse and (b) rat after intravenous (IV, 1.75 mg/kg for mouse and 1 mg/kg for rat) and oral (PO, 5 mg/kg) administration. Values shown on the right panels are mean ± SEM from 3 different animals. (c,d) Mean concentrations of NHWD-870 in the lungs (c) and tumors (d) of H526 xenograft model at the indicated hours after oral administration of 3 mg/kg NHWD-870 and BMS-98615821 on day 21. These mice were administrated the indicated drug daily for 21 days. Data are represented as mean ± SEM of 3 independent experiments. Source data are provided as a Source Data file. […]
9. In vivo pharmacokinetics study. Mouse and SD rat models were used to evaluate pharmacokinetic property of NHWD-870. NHWD-870 was administrated […]
Concentration of drugs in plasma, lung and tumor tissues were measured for the indicated time. […]

CSF1 mRNA [3] = test: RT-qPCR of CSF1 mRNA in mouse tumor cells (ID8, B16); format: cell-based; conditions: ID8, 50 nM, 48 h
[4] = male, BALB/c nude, plasma, IV 1.75 mg/kg
[5] = male, BALB/c nude, plasma, PO 5 mg/kg

Question: Which results are given for Cc1nnn(C)c1-c1cnc2c3c4cnn(C)c4ccc3n([C@H](c3ccccc3)C3CCOCC3)c2c1 [NHWD-870]?
Answer: relative CSF1 mRNA level (CSF1 mRNA [1]; 2780 (A2780)): 0.0041 and 0.006 and 0.005; relative CSF1 mRNA level (CSF1 mRNA [1]; YUAME): 0.0004 and 0.0005 and 0.0003; AUCExtrap ([2]; IV 1.75 mg/kg): 3.87±2.125%; T1/2 ([2]; IV 1.75 mg/kg, 1.75 mg/kg): 1.7 h; Plasma concentration ([2]; IV 1.75 mg/kg, 5 min, individual mice, 1.75 mg/kg): 547 ng/mL and 518 ng/mL; Plasma concentration ([2]; IV 1.75 mg/kg, 0.25 h, individual mice, 1.75 mg/kg): 431 ng/mL and 362 ng/mL; Plasma concentration ([2]; IV 1.75 mg/kg, 0.5 h, individual mice, 1.75 mg/kg): 399 ng/mL and 272 ng/mL; Plasma concentration ([2]; IV 1.75 mg/kg, 1 h, individual mice, 1.75 mg/kg): 295 ng/mL and 262 ng/mL; Plasma concentration ([2]; IV 1.75 mg/kg, 2 h, individual mice, 1.75 mg/kg): 281 ng/mL and 264 ng/mL; Plasma concentration ([2]; IV 1.75 mg/kg, 4 h, individual mice, 1.75 mg/kg): 215 ng/mL and 197 ng/mL; Plasma concentration ([2]; IV 1.75 mg/kg, 8 h, individual mice, 1.75 mg/kg): 41.2 ng/mL and 70.8 ng/mL; Plasma concentration ([2]; IV 1.75 mg/kg, 24 h, individual mice, 1.75 mg/kg): 0.876 ng/mL and 1.36 ng/mL; AUCExtrap ([2]; PO 5 mg/kg): 3.04±0.685%; F (%), oral bioavailability ([2]; PO 5 mg/kg, 5 mg/kg): 70%; Plasma concentration ([2]; PO 5 mg/kg, 0.25 h, individual mice, 5 mg/kg): 515 ng/mL and 150 ng/mL and 133 ng/mL; Plasma concentration ([2]; PO 5 mg/kg, 0.5 h, individual mice, 5 mg/kg): 630 ng/mL and 247 ng/mL and 269 ng/mL; Plasma concentration ([2]; PO 5 mg/kg, 1 h, individual mice, 5 mg/kg): 688 ng/mL and 321 ng/mL and 337 ng/mL; Plasma concentration ([2]; PO 5 mg/kg, 2 h, individual mice, 5 mg/kg): 593 ng/mL and 414 ng/mL; Plasma concentration ([2]; PO 5 mg/kg, 4 h, individual mice, 5 mg/kg): 308 ng/mL and 354 ng/mL; Plasma concentration ([2]; PO 5 mg/kg, 6 h, individual mice, 5 mg/kg): 62.6 ng/mL and 255 ng/mL and 189 ng/mL; Plasma concentration ([2]; PO 5 mg/kg, 8 h, individual mice, 5 mg/kg): 37.2 ng/mL and 209 ng/mL and 111 ng/mL; Plasma concentration ([2]; PO 5 mg/kg, 24 h, individual mice, 5 mg/kg): 0.953 ng/mL; AUC(0-inf) [2, 4]: 993 ± 280 ng·h/mL; AUC(0-t) [2, 4]: 939 ± 242 ng·h/mL; C0 [2, 4]: 630 ± 70.5 ng/mL; MRT inf [2, 4]: 2.22 ± 0.42 h; clearance [2, 4]: 35 ± 7.45 mL/min/kg; Vd ([2]; male, BALB/c nude, plasma, IV 1.75 mg/kg, read-out: Vdss): 4.17 ± 0.42 L/kg; AUC(0-inf) [2, 5]: 2010 ± 165 ng·h/mL; AUC(0-t) [2, 5]: 1950 ± 172 ng·h/mL; Cmax [2, 5]: 467 ± 74 ng/mL; MRT inf [2, 5]: 3.16 ± 0.24 h; Tmax [2, 5]: 1.33 ± 0.29 h; concentration at 24 h ([2]; male, BALB/c nude, plasma, PO 5 mg/kg, 24 h, individual mice, read-out: Plasma concentration): 1.94 ng/mL; half-life ([2]; male, BALB/c nude, plasma, iv, 1.75 mg/kg, IV 1.75 mg/kg): 1.73 ± 0.325 h; concentration at 5 min ([2]; male, BALB/c nude, plasma, iv, 1.75 mg/kg, IV 1.75 mg/kg, 5 min, individual mice, read-out: Plasma concentration): 614 ng/mL; concentration at 5 min ([2]; male, BALB/c nude, plasma, iv, 1.75 mg/kg, IV 1.75 mg/kg, 5 min, mean of 3 mice, read-out: Plasma concentration, Mean): 560 ng/mL; concentration at 0.25 h ([2]; male, BALB/c nude, plasma, iv, 1.75 mg/kg, IV 1.75 mg/kg, 0.25 h, individual mice, read-out: Plasma concentration): 491 ng/mL; concentration at 0.25 h ([2]; male, BALB/c nude, plasma, iv, 1.75 mg/kg, IV 1.75 mg/kg, 0.25 h, mean of 3 mice, read-out: Plasma concentration, Mean): 428 ng/mL; concentration at 0.5 h ([2]; male, BALB/c nude, plasma, iv, 1.75 mg/kg, IV 1.75 mg/kg, 0.5 h, individual mice, read-out: Plasma concentration): 388 ng/mL; concentration at 0.5 h ([2]; male, BALB/c nude, plasma, iv, 1.75 mg/kg, IV 1.75 mg/kg, 0.5 h, mean of 3 mice, read-out: Plasma concentration, Mean): 353 ng/mL; concentration at 1 h ([2]; male, BALB/c nude, plasma, iv, 1.75 mg/kg, IV 1.75 mg/kg, 1 h, individual mice, read-out: Plasma concentration): 417 ng/mL; concentration at 1 h ([2]; male, BALB/c nude, plasma, iv, 1.75 mg/kg, IV 1.75 mg/kg, 1 h, mean of 3 mice, read-out: Plasma concentration, Mean): 325 ng/mL; concentration at 2 h ([2]; male, BALB/c nude, plasma, iv, 1.75 mg/kg, IV 1.75 mg/kg, 2 h, individual mice, read-out: Plasma concentration): 362 ng/mL; concentration at 2 h ([2]; male, BALB/c nude, plasma, iv, 1.75 mg/kg, IV 1.75 mg/kg, 2 h, mean of 3 mice, read-out: Plasma concentration, Mean): 302 ng/mL; concentration at 4 h ([2]; male, BALB/c nude, plasma, iv, 1.75 mg/kg, IV 1.75 mg/kg, 4 h, individual mice, read-out: Plasma concentration): 190 ng/mL; concentration at 4 h ([2]; male, BALB/c nude, plasma, iv, 1.75 mg/kg, IV 1.75 mg/kg, 4 h, mean of 3 mice, read-out: Plasma concentration, Mean): 201 ng/mL; concentration at 8 h ([2]; male, BALB/c nude, plasma, iv, 1.75 mg/kg, IV 1.75 mg/kg, 8 h, individual mice, read-out: Plasma concentration): 50.2 ng/mL; concentration at 8 h ([2]; male, BALB/c nude, plasma, iv, 1.75 mg/kg, IV 1.75 mg/kg, 8 h, mean of 3 mice, read-out: Plasma concentration, Mean): 54.1 ng/mL; concentration at 24 h ([2]; male, BALB/c nude, plasma, iv, 1.75 mg/kg, IV 1.75 mg/kg, 24 h, individual mice, read-out: Plasma concentration): 0.937 ng/mL; concentration at 24 h ([2]; male, BALB/c nude, plasma, iv, 1.75 mg/kg, IV 1.75 mg/kg, 24 h, mean of 3 mice, read-out: Plasma concentration, Mean): 1.06 ng/mL; half-life ([2]; male, BALB/c nude, plasma, po, 5 mg/kg, PO 5 mg/kg): 1.29 ± 0.055 h; concentration at 0.25 h ([2]; male, BALB/c nude, plasma, po, 5 mg/kg, PO 5 mg/kg, 0.25 h, mean of 3 mice, read-out: Plasma concentration, Mean): 266 ng/mL; concentration at 0.5 h ([2]; male, BALB/c nude, plasma, po, 5 mg/kg, PO 5 mg/kg, 0.5 h, mean of 3 mice, read-out: Plasma concentration, Mean): 382 ng/mL; concentration at 1 h ([2]; male, BALB/c nude, plasma, po, 5 mg/kg, PO 5 mg/kg, 1 h, mean of 3 mice, read-out: Plasma concentration, Mean): 449 ng/mL; concentration at 2 h ([2]; male, BALB/c nude, plasma, po, 5 mg/kg, PO 5 mg/kg, 2 h, individual mice, read-out: Plasma concentration): 528 ng/mL; concentration at 2 h ([2]; male, BALB/c nude, plasma, po, 5 mg/kg, PO 5 mg/kg, 2 h, mean of 3 mice, read-out: Plasma concentration, Mean): 512 ng/mL; concentration at 4 h ([2]; male, BALB/c nude, plasma, po, 5 mg/kg, PO 5 mg/kg, 4 h, individual mice, read-out: Plasma concentration): 299 ng/mL; concentration at 4 h ([2]; male, BALB/c nude, plasma, po, 5 mg/kg, PO 5 mg/kg, 4 h, mean of 3 mice, read-out: Plasma concentration, Mean): 320 ng/mL; concentration at 6 h ([2]; male, BALB/c nude, plasma, po, 5 mg/kg, PO 5 mg/kg, 6 h, mean of 3 mice): 169 ng/mL; concentration at 8 h ([2]; male, BALB/c nude, plasma, po, 5 mg/kg, PO 5 mg/kg, 8 h, mean of 3 mice, read-out: Plasma concentration, Mean): 119 ng/mL; concentration at 24 h ([2]; male, BALB/c nude, plasma, po, 5 mg/kg, PO 5 mg/kg, 24 h, individual mice, read-out: Plasma concentration): 1.06 ng/mL; concentration at 24 h ([2]; male, BALB/c nude, plasma, po, 5 mg/kg, PO 5 mg/kg, 24 h, mean of 3 mice, read-out: Plasma concentration, Mean): 1.32 ng/mL; bioavailability ([2]; male, BALB/c nude, plasma, po, 5 mg/kg, PO 5 mg/kg, read-out: F (%), oral bioavailability): 70.8 ± 5.8%; relative CSF1 mRNA level (CSF1 mRNA [3]): 0.0037 and 0.00425 and 0.0051
